{
  "source": "patent US20230414626A1",
  "about": "“INDUCTION OF FERROPTOSIS FOR CANCER THERAPY” (Memorial Sloan Kettering Cancer Center, priority 2020, published 2023)",
  "system": "SREBF1-knockout cells",
  "experiment": "Cell death in SREBF1-knockout cells",
  "assay_type": "cell-based, human",
  "conditions": "SREBF1-knockout MDA-MB-453 and BT474 cells; Torin 1 μM; GDC-0941 2 μM; MK-2206 2 μM; CCI-779 0.5 μM",
  "method": "FIG. 9 A-F. SREBP1 protects cells from ferroptosis. (A) MCF7 cells were treated as indicated. RSL3, 5 μM; CCI-779, 0.5 μM. Cell lysates were collected 24 h after treatment for Western blot detecting […], total S6K, SREBP1(P) and SREBP1(m). (B) Cells were pretreated with 5 μM Fatostatin A overnight and treated as indicated. RSL3, 0.5 μM for BT474 cells, 1 μM for MDA-MB-453 and 5 μM for MCF7 cells; Fer-1, 1 μM. (C) Efficiency of SREBF1 Knockout in BT474, MDA-MB-453, and MCF7 cells was monitored by western blot. (D) MCF7 cells were treated as indicated. RSL3, 5 μM; Fer-1, 1 μM. (E) Cells were treated as indicated. RSL3, 1 μM for MDA-MB-453 cells and 0.5 μM for BT474 cells; Fer-1, 1 μM; Torin, 1 μM; GDC-0941, 2 μM; MK-2206, 2 μM; CCI-779, 0.5 μM. (F) SREBP1m was overexpressed in MCF7, MDA-MB-453 and A549 cells and determined by western blot. Cells were treated as indicated. RSL3, 5 μM for MCF7 cells, 0.5 μM for MDA-MB-453 cells and 0.25 μM for A549 cells; CCI-779, 0.5 μM.\nCells were seeded in plates at appropriate cell density and incubated overnight at 37° C. containing 5% C02, and then subjected to treatments as described in individual experiments. Cells were stained with hoechst 33342 (0.1 μg/ml) to monitor total cell number, and with Sytox Green (5 nM) to monitor cell death. Culture plates were read by Cytation 5 at indicated time points. Percentage of cell death was calculated as Sytox Green-positive cell number over total cell number. For 3D spheroids, cell viability was determined a commercially available cell viability assay (Promega, Madison, WI, USA) following the manufacturer's instructions. Viability was calculated by normalizing ATP levels of samples to that of negative controls (spheroids in normal full media without treatment).\nKeap1, NRF2 and SREBP1 depleted cells were generated with a CRISPR/Cas9-mediated knockout system. sgRNA sequences were cloned into LentiCRISPRV2. SCD1 depleted cells were generated with CRISPR/Cas9 mediated knockout system, using stable Cas9 expression cells and sanger CRISPR clone. […]",
  "data": [
    {"smiles": "CO[C@H]1C[C@@H]2CC[C@@H](C)[C@@](O)(O2)C(=O)C(=O)N2CCCC[C@H]2C(=O)O[C@H]([C@H](C)C[C@@H]2CC[C@@H](OC(=O)C(C)(CO)CO)[C@H](OC)C2)CC(=O)[C@H](C)/C=C(\\C)[C@@H](O)[C@@H](OC)C(=O)[C@H](C)C[C@H](C)/C=C/C=C/C=C/1C", "note": "[CCI-779, Temsirolimus]", "values": [
      {"measurement": "further enhancement of RSL3-induced ferroptosis", "value": "failed to further enhance RSL3-induced ferroptosis"}
    ]},
    {"smiles": "CS(=O)(=O)N1CCN(Cc2cc3nc(-c4cccc5[nH]ncc45)nc(N4CCOCC4)c3s2)CC1", "note": "[GDC-0941]", "values": [
      {"measurement": "further enhancement of RSL3-induced ferroptosis", "value": "failed to further enhance RSL3-induced ferroptosis"}
    ]},
    {"smiles": "NC1(c2ccc(-c3nc4ccn5c(=O)[nH]nc5c4cc3-c3ccccc3)cc2)CCC1", "note": "[MK-2206]", "values": [
      {"measurement": "further enhancement of RSL3-induced ferroptosis", "value": "failed to further enhance RSL3-induced ferroptosis"}
    ]},
    {"smiles": "CCC(=O)N1CCN(c2ccc(-n3c(=O)ccc4cnc5ccc(-c6cnc7ccccc7c6)cc5c43)cc2C(F)(F)F)CC1", "note": "[Torin]", "values": [
      {"measurement": "further enhancement of RSL3-induced ferroptosis", "value": "failed to further enhance RSL3-induced ferroptosis"}
    ]}
  ]
}
